Experiments:
mice [1] = assay: Acute pruritus induced by intradermal pruritogens, effect of peptides; format: in vivo, mouse; conditions: peptide 2 mM, 15 μL intradermal; mmu-miR-711 1 mM, 10 μL
Experimental: (§1) Behavioral Assessment for Scratching (Itch) and Wiping (Pain). Mice were shaved on the cheek or nape after a brief anesthesia with isoflurane. Before experiments, mice were habituated in small plastic chambers (14×18×12 cm) daily for two days. The room temperature and humidity remained stable for all the experiments. […] After the injection, the number of scratches in 60 min was counted. A scratch was counted when a mouse lifted its hind paw to scratch the shaved region and returned the paw to the floor or to the mouth. A bout of wiping was defined as a continuous wiping movement with a forepaw directing at the area of the injection area (Shimada and LaMotte, Pain 2008, 139, 681-687). Scratching and wiping behavior was videoed for 30 min or 60 min using Sony HDR-CX610 camera. The video was subsequently played back offline and the numbers of scratches and wipes were quantified in a blinded manner.

hTRPA1 [2] = target: T1, hTRPA1 (Homo sapiens, UniProt O75762); assay: Whole-cell patch clamp, inward currents in HEK293 cells expressing hTRPA1; format: cell-based; conditions: peptide 25 μM
Experimental: (§2) Cell Culture and Transfection. CD4^+ Myla cell line was cultured in RPMI 1640 media (GIBCO), supplemented with 2 mM Glutamine (GIBCO), 100 U/mL IL-2 (Sigma), 100 U/mL IL-4 (Sigma), and 10% human AB serum (Sigma). HuT 102 cell line was cultured in RPMI 1640 supplemented with pyruvate, HEPES, and 10% (v/v) fetal bovine serum (HyClone). HEK293-hTRPA1 stable cell line was cultured in MEM (GIBCO) containing 2 mM Glutamine, 4 μg/mL Blasticidin, 10% FBS (v/v). B16 and CHO cells were cultured in high glucose (4.5 g/L) Dulbecco's Modified Eagle's Medium (GIBCO) containing 10% (v/v) fetal bovine serum (GIBCO). Culture media were supplemented with 50 units/mL of penicillin and 50 μg/mL streptomycin, and cultures were maintained with 5% CO2 in 37° C. incubator. Transfection (2 μg cDNA) was performed with Lipofectamine™ 2000 Reagent (Invitrogen) at 80% confluency and the transfected cells were cultured in the same media for 48 hr before electrophysiological and biochemical studies.
Whole-Cell Patch Clamp Recordings in HEK293 Cells, CHO Cells, and DRG Neurons. Whole-cell patch clamp recordings were performed at room temperature using an Axopatch-200B amplifier (Axon Instruments) with a Digidata 1440B (Axon Instruments). In this study, we only examined small-diameter mouse DRG neurons (<25 μM) and small-diameter human DRG neurons (<55 μM). The patch pipettes were pulled from borosilicate capillaries (World Precision Instruments) using a P-97 Flaming/Brown micropipette puller (Sutter Instrument). Pipette resistance was 4-6 MΩ for whole-cell and outside-out recording. For inward current recordings in mouse and human DRG neurons, HEK293 cells, and CHO cells, the internal solution contains (in mM): 140 CsCl, 10 EGTA, 10 HEPES, and 2 Mg-ATP, adjusted to pH 7.3 with CsOH. Whole cell recordings were performed in an extracellular solution that contains (in mM): 140 NaCl, 5 KCl, 2 MgCl2, 10 HEPES, and 10 glucose, adjusted to pH 7.4 with NaOH and osmolarity to 300-310 mOsm. […] Action potential recordings were performed in small-diameter DRG neurons, with the following solutions: i) internal pipette solution contains: 126 mM K-gluconate, 10 mM NaCl, 1 mM MgCl2, 10 mM EGTA, 10 mM HEPES and 2 mM Na-ATP, adjusted to pH 7.4 with KOH and osmolarity to 295-300 mOsm), and ii) extracellular solution contains: 140 mM NaCl, 5 mM KCl, 2 mM MgCl2, 2 mM CaCl2, 10 mM HEPES, 10 mM glucose, adjusted to pH 7.4 with KOH.

hTRPA1 [3] = target: T1, hTRPA1; assay: RNA pull-down assay and immunoblotting; format: binding; conditions: RNA pull-down
Experimental: RNA Pull-Down Assay and Immunoblotting. hTRPA1-expressing HEK293 cells of equal amount (5×10^6) were plated onto 60 mm dishes, and 24 hr later, these cells were incubated with biotin-conjugated miR-711 or miR-711 (m6) in extracellular solution containing 140 mM NaCl, 5 mM KCl, 2 mM CaCl2, 1 mM MgCl2, 10 mM HEPES, and 10 mM glucose, adjusted to pH 7.4 for 15 min at 37° C. with 5% CO2. For crosslinking, 1% formaldehyde (vol/vol) was added at 37° C. for 10 min, then 12.5% glycine was applied to stop crosslinking by 5 min incubation at room temperature. Then the cells were collected and sonicated with ultrosonic probe sonicator (80% output, 5 s on and 10 s off) in 1 mL lysis buffer (1% Triton X-100, 50 mM Tris-HCl, 150 mM NaCl, 5 mM EDTA, pH7.4) on ice for 2 min. We then centrifuged the lysate at 13,000 rpm for 10 min at 4° C. and took 50 μL supernatant as lysate control. The remaining supernatant was added 20 μL streptadvilin agrose beads and incubated overnight. The pellets were collected after centrifuge at 6000 rmp for 30 s. For competing assay, miR-711 (10-50 μM) or mutant miR-711 (m6, 10-50 μM) were added 15 min before the incubation with biotin-conjugated miR-711 (10 μM). For immunoblotting, the lysates or beads were incubated in SDS-PAGE loading buffer for 30 min at 50° C., and supernatant was collected after centrifugation at 13000 rpm and decrosslink at 99° C. for 20 min. The samples were separated on an SDS-PAGE gel, transferred, and probed with TRPA1 antibody (1:1000; Alomone labs). The immunoreactive bands were detected with horseradish peroxidase-conjugated secondary antibody, visualized with enhanced chemiluminescence (Thermo scientific, Pittsburgh, Pa.), and quantified with Image-Pro Plus software (Media Cybernetics, Bethesda, Md.). Each experiment was repeated at least three times.

mice [4] = assay: Evans blue extravasation, neurogenic inflammation in a hind paw; format: in vivo, mouse; conditions: intraplantar, 10 μL; capsaicin 1 mM, AITC 5 mM, miR-711 1 mM
Experimental: Evans Blue Extravasation. To examine neurogenic inflammation in a hind paw (Han et al., Neuron 2016, 92, 1279-1293), mice were anesthetized with 5% isoflurane. Evans blue (50 mg/kg body weight) was given intravenously 10 min before neurogenic irritant application. […] Evans blue was extracted from the tissues by incubation in 400 μL formamide at 37° C. for 48 hr. Evans blue was quantified by measuring the optical density of the formamide extract at 620 nm. Absorbance was normalized to per gram of tissue weight.

TRPV1 = target: T2, TRPV1 (Mus musculus, UniProt Q704Y3); assay: Whole-cell patch clamp in CHO cells transfected with mouse Trpv1 cDNA; format: cell-based; conditions: miR-711 10 μM; capsaicin 50 nM
T2 construct: expressed in transfected cells; host or cells: CHO cells (ATCC CRL-9096), plasmid pcDNA3.1-mTrpv1, a gift from Korea University
Experimental: (§3) Constructs. The cDNAs of mouse pcDNA3.1-Trpa1, pcDNA3.1-Trpv1, pcDNA3.1-Trpv2, pcDNA3.1-Trpv3, and pcDNA3.1-Trpv4 were kindly provided Dr. Sun Work Hwang from Korea University. Mouse Trpa1 cDNA was subcloned into pCGN-HA backbone (Addgene) using In-Fusion HD Cloning Kit (Clontech Laboratories, CA). Q5 Site-Directed Mutagenesis Kit was used to generate mTrpa1 mutant (M1-M13) based on pCGN-mTrpa1.
as §2, with “studies. […]” for “studies.”

TRPV4 = target: T3, TRPV4 (Mus musculus, UniProt Q9EPK8); assay: Whole-cell patch clamp in CHO cells transfected with mouse Trpv4 cDNA; format: cell-based; conditions: miR-711 10 μM; GSK1016790A 1 μM
T3 construct: expressed in transfected cells; host or cells: CHO cells (ATCC CRL-9096), plasmid pcDNA3.1-mTrpv4, a gift from Korea University
Experimental: as §3
as §2, with “studies. […]” for “studies.”

TRPV2 = target: T4, TRPV2 (Mus musculus, UniProt Q9WTR1); assay: Whole-cell patch clamp in CHO cells transfected with mouse Trpv2 cDNA; format: cell-based; conditions: miR-711 10 μM; cannabidiol 100 μM
T4 construct: expressed in transfected cells; host or cells: CHO cells (ATCC CRL-9096), plasmid pcDNA3.1-mTrpv2, a gift from Korea University
T4 sequence (Q9WTR1 1-756): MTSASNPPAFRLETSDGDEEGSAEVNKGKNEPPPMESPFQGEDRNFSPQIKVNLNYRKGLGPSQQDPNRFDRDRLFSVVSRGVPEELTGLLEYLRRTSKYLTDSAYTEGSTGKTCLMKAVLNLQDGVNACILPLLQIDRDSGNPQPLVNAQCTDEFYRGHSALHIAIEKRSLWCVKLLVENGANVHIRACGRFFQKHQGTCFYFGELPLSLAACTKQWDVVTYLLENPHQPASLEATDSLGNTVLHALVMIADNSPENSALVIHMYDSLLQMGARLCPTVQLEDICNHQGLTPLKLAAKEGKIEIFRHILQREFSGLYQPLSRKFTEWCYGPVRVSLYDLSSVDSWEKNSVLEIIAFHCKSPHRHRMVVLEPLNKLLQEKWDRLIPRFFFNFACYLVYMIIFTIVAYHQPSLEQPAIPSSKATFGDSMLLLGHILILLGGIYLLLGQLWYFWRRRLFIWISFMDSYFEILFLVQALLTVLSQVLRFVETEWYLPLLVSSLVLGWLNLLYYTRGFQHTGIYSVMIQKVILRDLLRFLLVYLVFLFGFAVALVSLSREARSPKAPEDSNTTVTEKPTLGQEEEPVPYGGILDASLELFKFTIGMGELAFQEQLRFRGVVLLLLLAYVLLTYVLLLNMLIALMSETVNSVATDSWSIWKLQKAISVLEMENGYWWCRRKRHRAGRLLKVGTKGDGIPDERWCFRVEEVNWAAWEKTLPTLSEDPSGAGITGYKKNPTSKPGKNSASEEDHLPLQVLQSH
Experimental: as §3
as §2, with “studies. […]” for “studies.”

CTCL mice = assay: Mouse CTCL xenograft model of chronic itch; format: in vivo; conditions: given 20 days after Myla cell inoculation; hsa-miR-711 inhibitor 100 μM, HC030031 200 μM, A967079 50 μM, peptides 2 mM
Experimental: Mouse CTCL Xenograft Model of Chronic Itch. We developed a murine xenograft model of cutaneous T cell lymphoma (CTCL) using immune-deficient mice (NOD.CB17-Prkdcscid, 8-10 weeks old, male). CD4^+ MyLa cell line was purchased from Sigma (Ca #95051032). The cell line was established from a plaque biopsy of a person with mycosis fungoides stage II by inclusion of IL-2 and IL-4 in the culture medium. CTCL was generated via intradermal injection of CD4^+ Myla cells (1×10^5 cells/μl, 100 μL) on the nape of the neck. Tumor growth was assessed for 40 days by measurements of tumor diameters.
as §1
Generation of Myla Stable Cell Line Expressing miR-711 Inhibitor. CD4^+ Myla cells were plated at a density of 2×10^5 cells/mL in 2 mL culture media in 6-well plates. For each well, 20 μL of the MISSION Lenti microRNA Inhibitor (hsa-miR-711) lentivirus (Sigma) with a titer of 2.6×10^7 Tu/mL were added. Cell mixtures were incubated at 37° C. for 48 hr, washed with PBS three times, and re-suspended in fresh culture media, and 24 hr later, 1 μg/mL puromycin was added to the cells to select stably transduced cell populations. We tried to grow and passage the cells as much as necessary (usually 3 days) and maintained selection pressure by keeping 1 μg/mL puromycin in the medium. After 4 weeks, a large number of the cells were killed; the remaining cells retained the expression of the plasmid, which stably integrates into the genome of the targeted cells. These cells were used for inoculation to generate the CTCL model for testing the effects of miR-711 inhibitor on chronic itch and tumor growth.

mice [5] = assay: Persistent itch after intradermal adenovirus (AV) overexpression of hsa-miR-711; format: in vivo, mouse; conditions: 10 days after the AV injection, A-967079 50 μM, hsa-miR-711 inhibitor 100 μM, blocking peptide 2 μM
Experimental: as §1
miRNA Measurement by Quantitative Real-Time RT-PCR (qPCR). Total RNA was isolated from serum of CTCL mice or adenovirus-treated mice using Qiazol Lysis Reagent (QIAGEN) together with miRNeasy Serum/Plasma Kit (Park et al., Neuron 2014, 82, 47-54). All RNA samples were immediately used or kept at −80° C. until further processing. To convert mature miRNA into cDNA, 6 μl of total RNA solution were reverse transcribed using the miScript II RT Kit (including polyadenylation of miRNAs and reverse transcription using an oligo-dT that binds to a universal RT-sequence). Specific miRNA levels were quantified by qPCR using miScript SYBR Green Kit including miScript miRNA assay for hsa-miR-711, hsa-miR21, hsamiR155, and hsa-miR-326, together with the universal RT primer, according to the manufacturer's protocol (CFX96 Real-Time system, Bio-Rad). Relative quantities of miRNAs were calculated using the Ct value after normalization to control miRNAs. Caenorhabditis elegans miRNA-39 (cel-miRNA-39) was included as spiked-in control for extracellular miRNA.

T1 sequence (O75762 whole entry): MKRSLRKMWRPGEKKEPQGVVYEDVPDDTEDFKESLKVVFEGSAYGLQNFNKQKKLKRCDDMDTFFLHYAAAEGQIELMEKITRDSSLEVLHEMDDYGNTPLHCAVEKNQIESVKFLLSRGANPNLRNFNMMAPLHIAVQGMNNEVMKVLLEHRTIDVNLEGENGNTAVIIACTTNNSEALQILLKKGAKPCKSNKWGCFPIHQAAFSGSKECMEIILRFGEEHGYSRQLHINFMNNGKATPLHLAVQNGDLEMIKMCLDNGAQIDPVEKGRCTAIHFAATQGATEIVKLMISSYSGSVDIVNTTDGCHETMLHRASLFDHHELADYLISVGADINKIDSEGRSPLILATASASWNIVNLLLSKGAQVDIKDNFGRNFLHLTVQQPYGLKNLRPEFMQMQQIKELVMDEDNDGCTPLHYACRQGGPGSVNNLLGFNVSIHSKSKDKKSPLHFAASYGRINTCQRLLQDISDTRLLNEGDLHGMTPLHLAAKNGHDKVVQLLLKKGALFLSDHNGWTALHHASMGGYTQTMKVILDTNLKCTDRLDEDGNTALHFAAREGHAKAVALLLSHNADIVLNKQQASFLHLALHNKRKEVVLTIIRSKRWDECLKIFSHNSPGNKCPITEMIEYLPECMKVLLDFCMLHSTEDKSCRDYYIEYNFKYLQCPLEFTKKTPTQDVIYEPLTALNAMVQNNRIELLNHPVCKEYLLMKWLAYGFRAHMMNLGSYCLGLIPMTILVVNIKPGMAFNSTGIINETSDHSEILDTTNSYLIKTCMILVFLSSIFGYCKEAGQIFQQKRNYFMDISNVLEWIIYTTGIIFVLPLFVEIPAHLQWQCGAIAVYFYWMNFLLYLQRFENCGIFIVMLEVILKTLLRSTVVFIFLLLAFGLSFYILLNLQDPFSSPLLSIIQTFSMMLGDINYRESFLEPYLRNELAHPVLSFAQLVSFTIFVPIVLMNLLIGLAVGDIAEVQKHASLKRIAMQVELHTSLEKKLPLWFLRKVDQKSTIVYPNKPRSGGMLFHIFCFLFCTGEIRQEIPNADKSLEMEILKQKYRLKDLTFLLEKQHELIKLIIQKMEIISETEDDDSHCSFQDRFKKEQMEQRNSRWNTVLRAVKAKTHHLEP
T2 sequence (Q704Y3 whole entry): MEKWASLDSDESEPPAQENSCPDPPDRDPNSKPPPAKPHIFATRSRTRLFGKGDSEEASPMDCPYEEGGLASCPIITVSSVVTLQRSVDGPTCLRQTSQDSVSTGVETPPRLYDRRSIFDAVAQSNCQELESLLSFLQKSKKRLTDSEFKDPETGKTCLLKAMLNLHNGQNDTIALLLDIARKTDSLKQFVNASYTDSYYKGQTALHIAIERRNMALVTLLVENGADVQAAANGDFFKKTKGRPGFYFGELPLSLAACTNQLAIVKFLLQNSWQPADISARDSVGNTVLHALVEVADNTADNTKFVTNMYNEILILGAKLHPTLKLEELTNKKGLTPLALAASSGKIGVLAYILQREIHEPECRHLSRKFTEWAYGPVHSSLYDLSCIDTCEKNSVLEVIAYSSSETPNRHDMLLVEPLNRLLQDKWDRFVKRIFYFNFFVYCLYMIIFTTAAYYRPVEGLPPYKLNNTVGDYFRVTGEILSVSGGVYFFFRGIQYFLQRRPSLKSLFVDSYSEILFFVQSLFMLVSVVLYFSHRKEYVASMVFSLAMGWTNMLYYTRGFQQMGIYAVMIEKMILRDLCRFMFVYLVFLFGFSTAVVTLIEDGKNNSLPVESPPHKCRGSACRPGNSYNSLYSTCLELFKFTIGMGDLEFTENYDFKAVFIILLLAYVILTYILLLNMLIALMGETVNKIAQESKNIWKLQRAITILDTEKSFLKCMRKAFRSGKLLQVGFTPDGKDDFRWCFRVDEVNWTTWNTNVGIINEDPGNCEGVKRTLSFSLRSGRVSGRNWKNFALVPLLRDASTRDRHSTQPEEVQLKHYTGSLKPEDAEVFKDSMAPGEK
T3 sequence (Q9EPK8 whole entry): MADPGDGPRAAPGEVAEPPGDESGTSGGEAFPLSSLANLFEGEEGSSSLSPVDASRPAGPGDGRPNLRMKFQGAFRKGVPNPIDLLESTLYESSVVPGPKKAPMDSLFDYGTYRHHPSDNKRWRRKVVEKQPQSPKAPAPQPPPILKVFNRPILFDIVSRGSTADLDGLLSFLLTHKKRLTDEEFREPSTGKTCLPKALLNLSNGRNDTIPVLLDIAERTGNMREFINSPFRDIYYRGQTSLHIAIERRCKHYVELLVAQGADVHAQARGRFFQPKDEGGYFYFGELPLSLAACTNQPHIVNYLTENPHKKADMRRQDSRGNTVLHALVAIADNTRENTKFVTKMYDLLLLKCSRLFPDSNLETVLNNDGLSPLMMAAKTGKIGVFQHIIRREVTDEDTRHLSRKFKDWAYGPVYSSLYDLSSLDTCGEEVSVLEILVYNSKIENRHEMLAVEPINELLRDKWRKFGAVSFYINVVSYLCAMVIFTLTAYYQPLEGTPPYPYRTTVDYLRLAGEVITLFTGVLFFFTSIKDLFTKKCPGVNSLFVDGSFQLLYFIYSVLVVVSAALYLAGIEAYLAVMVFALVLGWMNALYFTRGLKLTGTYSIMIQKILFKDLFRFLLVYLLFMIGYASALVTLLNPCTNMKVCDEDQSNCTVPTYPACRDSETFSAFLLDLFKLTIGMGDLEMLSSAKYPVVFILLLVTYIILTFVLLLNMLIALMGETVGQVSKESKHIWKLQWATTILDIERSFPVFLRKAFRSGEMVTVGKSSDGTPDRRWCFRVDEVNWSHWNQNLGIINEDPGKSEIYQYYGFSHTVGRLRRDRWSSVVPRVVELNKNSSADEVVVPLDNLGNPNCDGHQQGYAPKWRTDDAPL

## NH2-FRNELAAAVATFGQL-COOH (H-FRNELAAAVATFGQL-OH) [mutated peptide]
Mice [1]
  effect on miR-711-induced pruritus: nor did this peptide inhibit
hTRPA1 [2]
  inhibition of miR-711-induced TRPA1 inward currents: nor did this peptide inhibit
hTRPA1 [3]
  disruption of the miR-711/TRPA1 interaction: Neither did this mutated peptide block

## COc1cc(CNC(=O)CCCC/C=C/C(C)C)ccc1O [capsaicin]
Mice [4]
  neurogenic inflammation in hind paws (Evans blue test): elicited robust neurogenic inflammation
TRPV1
  inward currents: inward currents induced

## CC(C)C[C@H](NC(=O)c1cc2ccccc2s1)C(=O)N1CCN(C(=O)[C@H](CO)NS(=O)(=O)c2ccc(Cl)cc2Cl)CC1 [GSK1016790A]
TRPV4
  inward currents: inward currents induced

## C=C(C)[C@@H]1CCC(C)=C[C@H]1c1c(O)cc(CCCCC)cc1O [cannabidiol]
TRPV2
  inward currents: inward currents induced

## miR-711 inhibitor: hsa-miR-711 inhibitor with a complementary sequence to hsa-miR-711: cuuacgucucucccuggguccc (SEQ ID NO: 22) (CUUACGUCUCUCCCUGGGUCCC; listed as RNA, chemistry not given here)
CTCL mice
  effect on CTCL-evoked chronic itch: reduced chronic pruritus
Mice [5]
  effect on hsa-miR-711 AV-induced persistent itch: Inhibition

Source: patent US20210283163A1, “COMPOSITIONS AND METHODS FOR THE TREATMENT OF ACUTE AND CHRONIC PRURITIS” (Duke University, priority 2018, published 2021)
